According to patent publication US20220227997A1, “Elastomeric silicone compositions comprising glycerol, cyclodextrin and octenidine” (Coloplast A/S, priority 2019, published 2022):
Structures can show the parent of a compound that is named as a salt.

Legend:
Pseudomonas aeruginosa = details: suspension test after 5 minutes of exposure; cited from earlier work
Escherichia coli = details: suspension test after 5 minutes of exposure; cited from earlier work
Proteus mirabilis = details: suspension test after 5 minutes of exposure; cited from earlier work
Staphylococcus aureus = details: suspension test after 5 minutes of exposure; cited from earlier work
Candida albicans = details: suspension test after 5 minutes of exposure; cited from earlier work
[1] = system: gram positive and gram negative bacteria; details: generally; cited from earlier work
[2] = in water; estimated by Steward et al.; cited from earlier work
[3] = Solubilization of octenidine in glycerol; format: physicochemical; details: without cyclodextrin
Source text: Octenidine is an amphiphilic substance therefore its solubility in glycerol is negligible, but may form micelles for higher solubility. In this study β-cyclodextrin (βCD) was used as a tool for allowing significant amounts of hydrophobic substances to be dissolved in hydrophilic media such as glycerol. Cyclodextrins as cyclic oligosaccharides that form host-guest complexes with hydrophobic molecules thereby enabling multiple potential uses. Here octenidine (0.35 g) and β-cyclodextrin (0.3182 g) were added to glycerol. The molar ratio between octenidine and β-cyclodextrin in the example was 2:1. The mixture was heated up to 80° C. and agitated using a magnetic stirrer until a clear solution was obtained (usually no longer than 30 minutes). Obtaining a clear mixture is indicative of successful preparation of a βCD-octenidine complex.

solubility in glycerol [3]	SMILES	Effective Concentration (Pseudomonas aeruginosa)	Effective Concentration (Escherichia coli)	Effective Concentration (Proteus mirabilis)	Effective Concentration (Staphylococcus aureus)	Effective Concentration (Candida albicans)	Effective concentrations in suspension [1]	critical micellar concentration [2]
–	[H]/N=C(\N/C(=N/[H])NCCCCCCNC(=N)NC(=N)Nc1ccc(Cl)cc1)Nc1ccc(Cl)cc1 [Chlorhexidine digluconate]	>0.2%	0.1%	>0.2%	>0.2%	0.025%	–	–
negligible	CCCCCCCCN=c1ccn(CCCCCCCCCCn2ccc(=NCCCCCCCC)cc2)cc1 [Octenidine dihydrochloride, N-octyl-1-[10-(4-octyliminopyridin-1-yl)decyl]pyridin-4-imine dihydro-chloride]	0.025%	0.025%	0.025%	0.025%	0.01%	above 0.005 wt %	3.79 mM
